From patent US12780800B1, “Triazole-pyridinyl substituted azacyclohexyl acetic acid compounds as LPA receptor antagonists” (Viva Star Biosciences Limited, priority 2021, dated 2022) come the findings set out here.

In the assay the target is T1, LPA1 (Homo sapiens, UniProt Q92633).
T1 construct: ProLink (PK) beta-galactosidase enzyme-fragment tag; host or cells: CHO-K1
T1 sequence (Q92633 whole entry, the tested form may be a part): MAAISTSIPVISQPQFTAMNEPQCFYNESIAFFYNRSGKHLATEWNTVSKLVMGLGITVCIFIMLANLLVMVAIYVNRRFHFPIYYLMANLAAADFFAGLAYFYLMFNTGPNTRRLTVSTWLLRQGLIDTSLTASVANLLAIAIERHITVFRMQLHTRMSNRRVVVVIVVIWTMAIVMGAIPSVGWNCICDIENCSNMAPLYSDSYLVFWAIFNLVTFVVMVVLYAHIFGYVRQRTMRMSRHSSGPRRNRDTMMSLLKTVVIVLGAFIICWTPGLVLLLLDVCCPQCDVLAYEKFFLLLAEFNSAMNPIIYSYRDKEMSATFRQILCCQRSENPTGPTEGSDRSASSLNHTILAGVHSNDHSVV
Description: LPA1 calcium flux assay (LPA1 functional antagonist assay). In kind it is cell-based. The note with it: PathHunter CHO-K1 EDG2 β-Arrestin cell line; calcium indicator dye; stimulated with EC80 concentration of LPA; FLIPR Tetra. An outline of the steps:
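The LPA1 antagonist readout was intracellular calcium flux, and IC50 values were calculated from it. Plates stood 30 min at RT after compound addition. Cells, grown overnight, had first taken up calcium dye over 45 min at 37 °C.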
(A change in cytosolic calcium serves as a functional read-out for many receptors and channels.)
`Cc1nc(-c2nnn(C)c2COc2cc(-n3cccn3)ccn2)ccc1N1CCC[C@H](CC(=O)O)C1` [Example 103, (R)-2-(1-(6-(5-(((4-(1H-pyrazol-1-yl)pyridin-2-yl)oxy)methyl)-1-methyl-1H-1,2,3-triazol-4-yl)-2-methylpyridin-3-yl)piperidin-3-yl)acetic acid]: the half-maximal inhibitory concentration (IC50) is below 100 nM.

On to `Cc1nc(-c2nnn(C)c2COc2cc(-n3nccn3)ccn2)ccc1N1CCC[C@H](CC(=O)O)C1` [Example 104, (R)-2-(1-(6-(5-(((4-(2H-1,2,3-triazol-2-yl)pyridin-2-yl)oxy)methyl)-1-methyl-1H-1,2,3-triazol-4-yl)-2-methylpyridin-3-yl)piperidin-3-yl)acetic acid], for which the IC50 was below 100 nM.

Consider `Cc1nc(-c2onc(C)c2COc2cc(-n3cccn3)ncn2)ccc1N1C[C@@H](CC(=O)O)CC(F)(F)C1` [Example 105, (S)-2-(1-(6-(4-(((6-(1H-pyrazol-1-yl)pyrimidin-4-yl)oxy)methyl)-3-methylisoxazol-5-yl)-2-methylpyridin-3-yl)-5,5-difluoropiperidin-3-yl)acetic acid], for which the half-inhibitory concentration (IC50) was below 100 nM.

For `CCCn1ccnc(OCc2c(-c3ccc(N4C[C@@H](CC(=O)O)CC(F)(F)C4)c(C)n3)nnn2C)c1=O` [Example 106, (S)-2-(5,5-difluoro-1-(2-methyl-6-(1-methyl-5-(((3-oxo-4-propyl-3,4-dihydropyrazin-2-yl)oxy)methyl)-1H-1,2,3-triazol-4-yl)pyridin-3-yl)piperidin-3-yl)acetic acid], the IC50 was above 5000 nM.

With `CCCn1ccc(=O)c(OCc2c(-c3ccc(N4C[C@@H](CC(=O)O)CC(F)(F)C4)c(CC)n3)nnn2C)c1` [Example 107, (S)-2-(1-(2-ethyl-6-(1-methyl-5-(((4-oxo-1-propyl-1,4-dihydropyridin-3-yl)oxy)methyl)-1H-1,2,3-triazol-4-yl)pyridin-3-yl)-5,5-difluoropiperidin-3-yl)acetic acid], the concentration for half-maximal inhibition (IC50) is above 5000 nM.

For `CCCn1nc(OCc2c(-c3ccc(N4C[C@@H](CC(=O)O)CC(F)(F)C4)c(C)n3)nnn2C)ccc1=O` [Example 108, (S)-2-(5,5-difluoro-1-(2-methyl-6-(1-methyl-5-(((6-oxo-1-propyl-1,6 dihydropyridazin-3-yl)oxy)methyl)-1H-1,2,3-triazol-4-yl)pyridin-3-yl)piperidin-3-yl)acetic acid], the half-inhibitory concentration (IC50) fell in the range of 500 to 5000 nM.

In the case of `CCCn1cc(OCc2c(-c3ccc(N4C[C@@H](CC(=O)O)CC(F)(F)C4)c(CC)n3)nnn2C)c(=O)cn1` [Example 109, (S)-2-(1-(2-ethyl-6-(1-methyl-5-(((5-oxo-2-propyl-2,5-dihydropyridazin-4-yl)oxy)methyl)-1H-1,2,3-triazol-4-yl)pyridin-3-yl)-5,5-difluoropiperidin-3-yl)acetic acid], the concentration for half-maximal inhibition (IC50) was in the range of 500 to 5000 nM.

For `CCCc1cn(C)c(=O)c(OCc2c(-c3ccc(N4C[C@@H](CC(=O)O)CC(F)(F)C4)c(CC)n3)nnn2C)n1` [Example 110, (S)-2-(1-(2-ethyl-6-(1-methyl-5-(((4-methyl-3-oxo-6-propyl-3,4-dihydropyrazin-2-yl)oxy)methyl)-1H-1,2,3-triazol-4-yl)pyridin-3-yl)-5,5-difluoropiperidin-3-yl)acetic acid], the half-inhibitory concentration (IC50) was above 5000 nM.

As for `CCCn1ccc(=O)c(OCc2c(-c3ccc(N4C[C@@H](CC(=O)O)CC(F)(F)C4)c(CC)n3)nnn2C)n1` [Example 111, (S)-2-(1-(2-ethyl-6-(1-methyl-5-(((4-oxo-1-propyl-1,4-dihydropyridazin-3-yl)oxy)methyl)-1H-1,2,3-triazol-4-yl)pyridin-3-yl)-5,5-difluoropiperidin-3-yl)acetic acid], the IC50 was above 5000 nM.

Turning to `CCCc1cccnc1OCc1c(-c2ccc(N3CCC(CC(=O)O)C(F)(F)C3)c(C)n2)nnn1C` (stereo not drawn) [Example 113, 2-(3,3-difluoro-1-(2-methyl-6-(1-methyl-5-(((3-propylpyridin-2-yl)oxy)methyl)-1H-1,2,3-triazol-4-yl)pyridin-3-yl)piperidin-4-yl)acetic acid], the IC50 was 500 to 5000 nM.

In the case of `CCc1nc(-c2nnn(C)c2COc2noc(CC3CC3)n2)ccc1N1C[C@@H](CC(=O)O)CC(F)(F)C1` [Example 116, (S)-2-(1-(6-(5-(((5-(cyclopropylmethyl)-1,2,4-oxadiazol-3-yl)oxy)methyl)-1-methyl-1H-1,2,3-triazol-4-yl)-2-ethylpyridin-3-yl)-5,5-difluoropiperidin-3-yl)acetic acid], the 50% inhibitory concentration (IC50) was below 100 nM.

Take `CCc1nc(-c2nnn(C)c2CNc2noc(CC3CC3)n2)ccc1N1C[C@@H](CC(=O)O)CC(F)(F)C1` [Example 117, (S)-2-(1-(6-(5-(((5-(cyclopropylmethyl)-1,2,4-oxadiazol-3-yl)amino)methyl)-1-methyl-1H-1,2,3-triazol-4-yl)-2-ethylpyridin-3-yl)-5,5-difluoropiperidin-3-yl)acetic acid]: the IC50 lay within 100 to 500 nM.

On to `CCc1nc(-c2cnn(C)c2COc2noc(CC3CC3)n2)ncc1N1C[C@@H](CC(=O)O)CC(F)(F)C1` [Example 118, (S)-2-(1-(2-(5-(((5-(cyclopropylmethyl)-1,2,4-oxadiazol-3-yl)oxy)methyl)-1-methyl-1H-pyrazol-4-yl)-4-ethylpyrimidin-5-yl)-5,5-difluoropiperidin-3-yl)acetic acid], for which the half-maximal inhibitory concentration (IC50) was above 5000 nM.

Consider `CCc1nc(-c2nnn(C)c2COc2noc(C3CCC3)n2)ccc1N1C[C@@H](CC(=O)O)CC(F)(F)C1` [Example 119, (S)-2-(1-(6-(5-(((5-cyclobutyl-1,2,4-oxadiazol-3-yl)oxy)methyl)-1-methyl-1H-1,2,3-triazol-4-yl)-2-ethylpyridin-3-yl)-5,5-difluoropiperidin-3-yl)acetic acid], for which the IC50 fell in the range of 100 to 500 nM.

For the compound `CCc1nc(-c2nnn(C)c2CNc2noc(C3CCC3)n2)ccc1N1C[C@@H](CC(=O)O)CC(F)(F)C1` [Example 120, (S)-2-(1-(6-(5-(((5-cyclobutyl-1,2,4-oxadiazol-3-yl)amino)methyl)-1-methyl-1H-1,2,3-triazol-4-yl)-2-ethylpyridin-3-yl)-5,5-difluoropiperidin-3-yl)acetic acid], the IC50 lay within 500 to 5000 nM.

For the compound `CCCn1ncnc1OCc1c(-c2ccc(N3C[C@@H](CC(=O)O)CC(F)(F)C3)c(CC)n2)nnn1C` [Example 121, (S)-2-(1-(2-ethyl-6-(1-methyl-5-(((1-propyl-1H-1,2,4-triazol-5-yl)oxy)methyl)-1H-1,2,3-triazol-4-yl)pyridin-3-yl)-5,5-difluoropiperidin-3-yl)acetic acid], the IC50 lay within 500 to 5000 nM.

In the case of `CCc1nc(-c2nnn(C)c2COc2ncnn2CC2CC2)ccc1N1C[C@@H](CC(=O)O)CC(F)(F)C1` [Example 122, (S)-2-(1-(6-(5-(((1-(cyclopropylmethyl)-1H-1,2,4-triazol-5-yl)oxy)methyl)-1-methyl-1H-1,2,3-triazol-4-yl)-2-ethylpyridin-3-yl)-5,5-difluoropiperidin-3-yl)acetic acid], the IC50 lay in the range of 100 to 500 nM.

Regarding `CCc1nc(-c2nnn(C)c2COc2ncnn2CC(C)C)ccc1N1C[C@@H](CC(=O)O)CC(F)(F)C1` [Example 123, (S)-2-(1-(2-ethyl-6-(5-(((1-isobutyl-1H-1,2,4-triazol-5-yl)oxy)methyl)-1-methyl-1H-1,2,3-triazol-4-yl)pyridin-3-yl)-5,5-difluoropiperidin-3-yl)acetic acid], the IC50 lay within 100 to 500 nM.

As a reminder, the IC50 is the concentration needed to halve the response being measured.
